Measurements reported in EP0367747A2, “Dideoxy-L-arabinitol derivatives as antiviral compounds” (G.D. Searle & Co., priority 1988, dated 1990).
Where two headings read alike, the source gives them in different places. Marks after values point to notes of the source that are not given here. Each block holds one compound with its values, some of them ahead of it.

What was measured:
Yeast alpha-glucosidase = biological target: T1, Yeast alpha-glucosidase (Saccharomyces cerevisiae, UniProt P53341); test: Alpha-glucosidase inhibition assay, pH 7.4 (p-nitrophenol release); assay type: biochemical
T1 construct: purchased Sigma
Procedure: (§1) Yeast alpha-glucosidase and almond beta-glucosidase activities were measured by a modification of the method of Evans, et al., Phytochemistry 22, 768-770 (1983). The modifications included 1) assay of activities at pH 7.4 in HEPES (N-2-hydroxyethylpiperazine-N′-2-ethanesulfonic acid) buffer, 2) measurement in 96 well microtiter plates and 3) inclusion of 10% DMSO in control and test samples. The release of p-nitrophenol from the substrate p-nitrophenylglycoside was measured spectrophotometrically in the presence and absence of test compound. Each assay included a known inhibitor of the enzyme as a standard. IC₅₀ values were determined for compounds which inhibited the enzymes more than 50% at a 1 millimolar concentration. To 100 µl 50 mM HEPES buffer, pH 7.4, in a microtiter plate, add 20 µl test compound in DMSO (DMSO alone in control), 40 µl (0.013 units) yeast alpha-glucosidase (Sigma) in HEPES buffer and pre-incubate at room temperature for 15 minutes. […] Absorption change was measured at 15 to 25 minutes (reaction was linear for at least 30 minutes). Each sample was tested in triplicate. IC₅₀ values were determined from the linear portion of the log concentration vs % inhibition curve obtained from a minimum of 3 points. Deoxynojirimycin was used as standard inhibitor.

almond beta-glucosidase [1] = test: Beta-glucosidase inhibition assay, pH 7.4 (p-nitrophenol release); assay type: biochemical; conditions: for IC50: Table 3, at pH 7.4, read-out: β-glucosidase IC₅₀; for β-Glucosidase pH 7.4 % Inhibition: Table 5
Procedure: as §1, with “µl (0.136” for “µl (0.013”, “units) beta-glucosidase” for “units) yeast alpha-glucosidase”, “(reaction is” for “(reaction was”, “points. Castanospermine” for “points. Deoxynojirimycin”

[2] = test system: Sheep choroid plexus(SCP) cells; test: Toxicity of compounds in control wells without virus, graded morphologically 0 to 4; assay type: cell-based; design: key: 0 = no toxicity; 4 = total cell lyses; conditions: 0 to 4 scale
Procedure: (§2) SCP cells were cultured in 6-well plates to confluence. Wells were washed two times with serum free Minimal Essential Medium (MEM) to remove FBS. 0.2ml of virus was added per well in MEM supplemented with 4mM glutamine and gentamycin. After 1 hour adsorption, the virus was aspirated from each well. The appropriate concentration of each compound in 5 ml of Medium 199 (M-199) supplemented with 2% lamb serum, 4mM glutamine, 0.5% agarose and gentamycin was added to each well. Cultures were incubated at 37°C in a humidified 5% CO₂ incubator for 3-4 weeks. To terminate the test: cultures were fixed in 10% formalin, the agar removed, the monolayers stained with 1% crystal violet and plaques counted. Each compound concentration was run in triplicate. […] 0 is no toxicity observed while 4 is total lysing of the cell monolayer.
Control wells without virus were completed to determine the toxicity of compounds.

almond beta-glucosidase [3] = test: Beta-glucosidase inhibition assay, pH 4.8 (p-nitrophenol release); assay type: biochemical; conditions: for IC50: Table 3, at pH 4.8, read-out: β-glucosidase IC₅₀; for β-Glucosidase pH 4.8 % Inhibition: Table 5
Procedure: Yeast alpha-glucosidase and almond beta-glucosidase activities were measured by a modification of the method of Evans, et al., Phytochemistry 22, 768-770 (1983). The modifications included 1) assay of activities at pH 7.4 in HEPES (N-2-hydroxyethylpiperazine-N′-2-ethanesulfonic acid) buffer, 2) measurement in 96 well microtiter plates and 3) inclusion of 10% DMSO in control and test samples. The release of p-nitrophenol from the substrate p-nitrophenylglycoside was measured spectrophotometrically in the presence and absence of test compound. Each assay included a known inhibitor of the enzyme as a standard. IC₅₀ values were determined for compounds which inhibited the enzymes more than 50% at a 1 millimolar concentration. To 100 µl 50 mM sodium citrate buffer, pH 4.8, in a microtiter plate, add 15 µl test compound in DMSO (DMSO alone in control), 20 µl (.017 units) beta-glucosidase (Sigma) in citrate buffer and pre-incubate at room temperature for 15 minutes. Add 25 µl 2.50 mM p-nitrophenyl-beta-D-glucopyranside in citrate buffer, as substrate. Incubate at room temperature 20 minutes (reaction is linear for at least 30 minutes). Add 50 µl 0.4 M NaOH. Read absortion change at 405 nm in a Biotek EIA Autoreader. Each sample was tested in triplicate. IC₅₀ values were determined from the linear portion of the log concentration vs % inhibition curve obtained from a minimum of 3 points. Castanospermine was used as standard inhibitor.

visna virus = test: Inhibition of visna virus in vitro (plaque reduction assay / 96 well plate assay) in SCP cells; assay type: cell-based; design: key to Antiviral Activity: A = active compound; I = inactive; conditions: for Antiviral Activity: Table 4; for inhibition at 1 µM / inhibition at 10 µM / inhibition at 100 µM / inhibition at 1000 µM / EC50: Visna-maedi virus; for inhibition at 1 µM: Concentration 0.001 mM; for inhibition at 10 µM: Concentration 0.01 mM; for inhibition at 100 µM: Concentration 0.1 mM; for inhibition at 1000 µM: Concentration 1.0 mM; for EC50: inhibition of visna virus, read-out: EC₅₀
Procedure: Various compounds as prepared above were tested for inhibition of visna virus in vitro in a plaque reduction assay as follows:
Sheep choroid plexus(SCP) cells were obtained from American Type Culture Collection (ATCC) catalogue number CRL 1700 and were routinely passaged in vitro in Dulbecco's Modified Eagles (DME) medium supplemented with 20% fetal bovine serum (FBS). SCP cells were passaged once per week at a 1:2 or 1:3 split ratio. Visna was titrated by plaque assay in six-well plates. Virus pools were stored at -70°C.
as §2
The 96 well plate assay was performed similarly to the plaque assay above with modifications. SCP cells were seeded at 1 x 10⁴ cells per well in 0.1 ml DME medium. When confluent, the wells were washed with serum free MEM and 25ul of virus added in M-199 supplemented with 2% lamb serum. After 1 hour, 75uL of medium containing test compound was added to each well containing virus. After 2-3 weeks incubation the cytopathic effect of the virus was determined by staining with a vital stain. Cell viability was measured by determining stain density using a 96 well plate reader.

[4] = Table 3, pH 7.4, read-out: α-glucosidase IC₅₀
[5] = Table 5, values marked *, read-out: α-Glucosidase IC₅₀

T1 sequence (P53341 whole entry): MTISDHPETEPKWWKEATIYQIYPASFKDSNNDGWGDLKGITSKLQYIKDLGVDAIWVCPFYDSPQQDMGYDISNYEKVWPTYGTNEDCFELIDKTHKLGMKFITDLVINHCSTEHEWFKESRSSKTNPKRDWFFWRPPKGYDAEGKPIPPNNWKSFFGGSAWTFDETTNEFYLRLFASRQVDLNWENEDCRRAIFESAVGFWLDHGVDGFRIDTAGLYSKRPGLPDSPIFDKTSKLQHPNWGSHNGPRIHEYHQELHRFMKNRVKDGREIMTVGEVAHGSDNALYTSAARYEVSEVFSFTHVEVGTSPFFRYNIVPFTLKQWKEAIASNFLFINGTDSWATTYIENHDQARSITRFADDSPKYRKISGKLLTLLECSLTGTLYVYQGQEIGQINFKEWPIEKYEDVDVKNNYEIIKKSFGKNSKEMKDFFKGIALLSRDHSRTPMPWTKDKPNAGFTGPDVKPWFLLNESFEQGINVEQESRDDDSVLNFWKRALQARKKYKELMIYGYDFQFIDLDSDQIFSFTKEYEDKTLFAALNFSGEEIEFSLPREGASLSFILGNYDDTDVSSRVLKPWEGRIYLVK

- inhibition at 1000 µM (Yeast alpha-glucosidase; Table 3, at 1 mM, read-out: α-glucosidase Inhibitory Activity): 23%
Compound: CC(=O)OC[C@H]1[C@H](OC(C)=O)[C@@H](OC(C)=O)CN1C(=O)c1ccccc1 [Example 27, 1,4-(Benzoylimino)-1,4-dideoxy-L-arabinitol, triacetate]

- IC50 (Yeast alpha-glucosidase; [4]): 13 µM
- IC50 (almond beta-glucosidase [1]): > 1 mM
- β-Glucosidase pH 7.4 % Inhibition (almond beta-glucosidase [1]; at 1.0 mM): 31%
- IC50 (almond beta-glucosidase [3]): > 1 mM
- β-Glucosidase pH 4.8 % Inhibition (almond beta-glucosidase [3]; at 1.0 mM): 34%
Compound: OC[C@H]1[C@H](O)[C@@H](O)CN1CCCc1ccccc1 [Example 16, 1,4-([3-Propylphenyl]imino)-1,4-dideoxy-L-arabinitol]
- Toxicity ([2]; Table 4, 0.01 mM Concn.): 0
- Toxicity ([2]; Table 4, 0.1 mM Concn.): 0
- Toxicity ([2]; Table 4, 1.0 mM Concn.): 3

Compound: CCCCCCN1C[C@H](OC(C)=O)[C@@H](OC(C)=O)[C@@H]1COC(C)=O [Example 7, 1,4-(Hexylimino)-1,4-dideoxy-L-arabinitol, triacetate]
- Toxicity ([2]; Table 4, 0.01 mM Concn.): 0
- Toxicity ([2]; Table 4, 0.1 mM Concn.): 2
- Toxicity ([2]; Table 4, 1.0 mM Concn.): 4
- Antiviral Activity (visna virus; 0.01 mM Concn.): A
- Antiviral Activity (visna virus; 0.1 mM Concn.): A

Compound: CCCCN1C[C@H](OC(C)=O)[C@@H](OC(C)=O)[C@@H]1COC(C)=O [Example 5, 1,4-(Butylimino)-1,4-dideoxy-L-arabinitol, triacetate]
- Toxicity ([2]; Concentration 0.001 mM): 0
- Toxicity ([2]; Concentration 0.01 mM): 0
- Toxicity ([2]; Concentration 0.1 mM): 0
- Toxicity ([2]; Concentration 1.0 mM): 0
- inhibition at 1 µM (visna virus): 9%
- inhibition at 10 µM (visna virus): 10%
- inhibition at 100 µM (visna virus): 10%
- inhibition at 1000 µM (visna virus): 83%

- EC50 (visna virus): 100 µM
Compound: CC(=O)OCCCCCN1C[C@H](OC(C)=O)[C@@H](OC(C)=O)[C@@H]1COC(C)=O [Example 15, 1,4-([5-Acetyloxypentyl]imino)-1,4-dideoxy-L-arabinitol, triacetate]

- IC50 (Yeast alpha-glucosidase; [5]): 227 µM
- β-Glucosidase pH 7.4 % Inhibition (almond beta-glucosidase [1]; at 1.0 mM): 26%
- β-Glucosidase pH 4.8 % Inhibition (almond beta-glucosidase [3]; at 1.0 mM): 20%
Compound: CCCCN1CC(O)C(O)C1CO [Example 4, 1,4-(Butylimino)-1,4-dideoxy-L-arabinitol]
- Toxicity ([2]; Table 4, 0.01 mM Concn.): 0
- Toxicity ([2]; Table 4, 0.1 mM Concn.): 0
- Toxicity ([2]; Table 4, 1.0 mM Concn.): 0

- EC50 (visna virus): 1 µM
Compound: CCCC(=O)OC[C@@H]1NC[C@H](OC(=O)CCC)[C@H]1OC(=O)CCC [Example 23, 1,4-Imino-1,4-dideoxy-L-arabinitol, tributyrate]

- EC50 (visna virus): 100 µM
Compound: CCc1ccc(CN2C[C@H](O)[C@@H](O)[C@@H]2CO)cc1 [Example 9, 1,4-([4-Ethylphenyl]methylimino)-1,4-dideoxy-L-arabinitol]

- IC50 (Yeast alpha-glucosidase; [5]): 482 µM
- β-Glucosidase pH 7.4 % Inhibition (almond beta-glucosidase [1]; at 1.0 mM): 4%
- β-Glucosidase pH 4.8 % Inhibition (almond beta-glucosidase [3]; at 1.0 mM): 4%
Compound: O=C(OCc1ccccc1)N1C[C@H](O)[C@@H](O)[C@@H]1CO [Example 17, 1,4-(Benzyloxycarbonylimino)-1,4-dideoxy-L-arabinitol]

Compound: CCC(=O)N1C[C@H](OC(C)=O)[C@@H](OC(C)=O)[C@@H]1COC(C)=O [Example 31, 1,4-(Propionylimino)-1,4-dideoxy-L-arabinitol, triacetate]
- Toxicity ([2]; Table 4, 0.1 mM Concn.): 1
- Toxicity ([2]; Table 4, 1.0 mM Concn.): 3

- IC50 (Yeast alpha-glucosidase; [5]): 178 µM
- β-Glucosidase pH 7.4 % Inhibition (almond beta-glucosidase [1]; at 1.0 mM): 45%
- β-Glucosidase pH 4.8 % Inhibition (almond beta-glucosidase [3]; at 1.0 mM): 14%
Compound: OCCN1C[C@H](O)[C@@H](O)[C@@H]1CO [Example 2, 1,4-Dideoxy-1,4-([2-hydroxyethyl]imino)-L-arabinitol]
- Toxicity ([2]; Table 4, 0.01 mM Concn.): 0
- Toxicity ([2]; Table 4, 0.1 mM Concn.): 0

Compound: CCc1ccc(CN2C[C@H](OC(C)=O)[C@@H](OC(C)=O)[C@@H]2COC(C)=O)cc1 [Example 10, 1,4-([4-Ethylphenyl]methylimino)-1,4-dideoxy-L-arabinitol, triacetate]
- Toxicity ([2]; Table 4, 0.01 mM Concn.): 1
- Toxicity ([2]; Table 4, 0.1 mM Concn.): 1
- Toxicity ([2]; Table 4, 1.0 mM Concn.): 4

- IC50 (Yeast alpha-glucosidase; [4]): 2.2 µM
- IC50 (almond beta-glucosidase [1]): > 1 mM
- β-Glucosidase pH 7.4 % Inhibition (almond beta-glucosidase [1]; at 1.0 mM): 26%
- IC50 (almond beta-glucosidase [3]): > 1 mM
- β-Glucosidase pH 4.8 % Inhibition (almond beta-glucosidase [3]; at 1.0 mM): 19%
Compound: OC[C@H]1[C@H](O)[C@@H](O)CN1Cc1ccc(Cl)cc1 [Example 8, 1,4-([4-Chlorophenyl]methylimino)-1,4-dideoxy-L-arabinitol]
- Toxicity ([2]; Table 4, 0.01 mM Concn.): 0
- Toxicity ([2]; Table 4, 1.0 mM Concn.): 3

Compound: CCCCN1C[C@H](O)[C@@H](O)[C@H](O)[C@H]1CO [N-Bu-DNJ, N-butyl derivative of 1,5-dideoxy-1,5-imino-D-glucitol, reference compound]
- Toxicity ([2]; Concentration 0.001 mM): 0
- Toxicity ([2]; Concentration 0.01 mM): 0
- Toxicity ([2]; Concentration 0.1 mM): 1
- Toxicity ([2]; Concentration 1.0 mM): 2
- inhibition at 1 µM (visna virus): -74%
- inhibition at 10 µM (visna virus): 13%
- inhibition at 100 µM (visna virus): 100%
- inhibition at 1000 µM (visna virus): 100%

- IC50 (Yeast alpha-glucosidase; [5]): 33 µM
- β-Glucosidase pH 7.4 % Inhibition (almond beta-glucosidase [1]; at 1.0 mM): 1%
- β-Glucosidase pH 4.8 % Inhibition (almond beta-glucosidase [3]; at 1.0 mM): 7%
Compound: CC(C)C(=O)OC[C@H]1[C@H](OC(=O)C(C)C)[C@@H](OC(=O)C(C)C)CN1C(=O)OCc1ccccc1 [Example 24, 1,4-(Benzyloxycarbonylimino)-1,4-dideoxy-L-arabinitol, triisobutyrate]

- IC50 (Yeast alpha-glucosidase; [4]): 35 µM
- EC50 (visna virus): 125 µM
Compound: CCCCCCN1CC(O)C(O)C1CO [Example 6, 1,4-(Hexylimino)-1,4-dideoxy-L-arabinitol]

- inhibition at 10 µM (Yeast alpha-glucosidase; Table 5, at 10 µM (**), read-out: α-Glucosidase % Inhibition): 30%
- β-Glucosidase pH 7.4 % Inhibition (almond beta-glucosidase [1]; at 10 µM (**)): 2%**
- β-Glucosidase pH 4.8 % Inhibition (almond beta-glucosidase [3]; at 10 µM (**)): 11%**
Compound: CCCC(=O)OC[C@H]1[C@H](OC(=O)CCC)[C@@H](OC(=O)CCC)CN1C(=O)OCc1ccccc1 [Example 22, 1,4-(Benzyloxycarbonylimino)-1,4-dideoxy-L-arabinitol, tributyrate]
- Toxicity ([2]; Table 4, 0.1 mM Concn.): 1
- Toxicity ([2]; Table 4, 1.0 mM Concn.): 2
